Patent publication US6531610B1 (Abbott Laboratories, priority 1989, dated 2003)
Like-named read-outs stand apart in the source and are kept apart here.

Key:
[1] = test system: HIV-13B in MT4 cells; experiment: Antiviral activity: inhibition of the cytopathic effect of HIV in MT4 cells; format: cell-based, HIV-1; details: read-out: IC50
[2] = in vitro; format: cell-based; details: human
Excerpt: The anti-HIV activity of the compounds of the invention can be determined in MT4 cells according to the procedure of Kempf, et. al. (Antimicrob. Agents Chemother. 1991, 35, 2209).

[3] = Human immunodeficiency virus 1, MT4

SMILES	IC50 [1, 3] [nM]	CC50 [2] [nM]	IC50 ([1]; concentration giving 50% inhibition of the cytopathic effect of HIV, HIV-13B in MT4 cells) [nM]
CC(C)c1nc(CN(C)C(=O)N[C@H](C(=O)N[C@H](Cc2cncs2)C[C@H](O)[C@H](Cc2ccccc2)NC(=O)OCc2cncs2)C(C)C)cs1 [Example 8, (2S,3S,5S)-5-(N-(N-((N-Methyl-N-((2-isopropyl-4-thiazolyl)methyl)amino)carbonyl)valinyl)amino)-1-phenyl-2-(N-((5-thiazolyl)methoxycarbonyl)amino)-6-(5-thiazolyl)-3-hydroxyhexane]	57 to 95	97000	
CC(C)[C@H](NC(=O)N(C)Cc1csc(N2CCCC2)n1)C(=O)N[C@@H](Cc1ccccc1)C[C@H](O)[C@H](Cc1ccccc1)NC(=O)OCc1ccno1 [Example 49, (2S,3S,5S)-5-(N-(N-((N-Methyl-N-((2-(1-pyrrolidinyl)-4-thiazolyl)methyl)amino)carbonyl)valinyl)amino)-2-(N-((5-isoxazolyl)methoxycarbonyl)amino)-1,6-diphenyl-3-hydroxyhexane]	81 to 130	38000	
CC(C)c1nc(CCOC(=O)N[C@H](C(=O)N[C@@H](Cc2ccccc2)[C@@H](O)C[C@H](Cc2ccccc2)NC(=O)OCc2cncs2)C(C)C)cs1 [Example 48, (2S,3S,5S)-2-(N-(N-((2-(2-Isopropyl-4-thiazolyl)ethoxy)carbonyl)valinyl)amino)-5-(N-((5-thiazolyl)methoxycarbonyl)amino)-1,6-diphenyl-3-hydroxyhexane]	90 to 110	> 100000	
CC(C)[C@H](NC(=O)OCc1csc(N(C)C)n1)C(=O)N[C@@H](Cc1ccccc1)C[C@H](O)[C@H](Cc1ccccc1)NC(=O)OCc1cncs1 [Example 9, (2S,3S,5S)-5-(N-(N-((2-(N,N-Dimethylamino)-4-thiazolyl)methoxycarbonyl)valinyl)amino)-2-(N-((5-thiazolyl)methoxycarbonyl)amino)-1,6-diphenyl-3-hydroxyhexane]	80 to 100	62000	
CC(C)[C@H](NC(=O)OCc1csc(N2CCCC2)n1)C(=O)N[C@@H](Cc1ccccc1)[C@@H](O)C[C@H](Cc1ccccc1)NC(=O)OCc1cncs1 [Example 14, (2S,3S,5S)-2-(N-(N-((2-(1-Pyrrolidinyl)-4-thiazolyl)-methoxycarbonyl)valinyl)amino)-5-(N-((5-thiazolyl)-methoxycarbonyl)amino)-1,6-diphenyl-3-hydroxyhexane]	140 to 220	> 100000	
CCC(CC)c1nc(CN(C)C(=O)N[C@H](C(=O)N[C@@H](Cc2ccccc2)C[C@H](O)[C@H](Cc2ccccc2)NC(=O)OCc2cncs2)C(C)C)cs1 [Example 44, (2S,3S,5S)-5-(N-(N-((N-Methyl-N-((2-(3-pentyl)-4-thiazolyl)methyl)amino)carbonyl)valinyl)amino)-2-(N-((5-thiazolyl)methoxycarbonyl)amino)-1,6-diphenyl-3-hydroxyhexane]	120 to 160		
CC(C)c1nc(CN(C)C(=O)N[C@@H](C)C(=O)N[C@@H](Cc2ccccc2)C[C@H](O)[C@H](Cc2ccccc2)NC(=O)OCc2ccno2)co1 [Example 57, (2S,3S,5S)-5-(N-(N-((N-Methyl-N-((2-isopropyl-4-oxazolyl)methyl)amino)carbonyl)-L-alaninyl)amino)-2-(N-((5-isoxazolyl)methoxycarbonyl)amino)-1,6-diphenyl-3-hydroxyhexane]	35 to 48		
CCN(Cc1csc(C(C)C)n1)C(=O)N[C@H](C(=O)N[C@@H](Cc1ccccc1)C[C@H](O)[C@H](Cc1ccccc1)NC(=O)OCc1cncs1)C(C)C [Example 4, (2S,3S,5S)-5-(N-(N-((N-Ethyl-N-((2-isopropyl-4-thiazolyl)methyl)amino)carbonyl)valinyl)amino)-2-(N-((5-thiazolyl)methoxycarbonyl)amino)-1,6-diphenyl-3-hydroxyhexane]	170 to 320		
CC(C)c1nc(CN(C)C(=O)N[C@@H](C)C(=O)N[C@@H](Cc2ccccc2)C[C@H](O)[C@H](Cc2ccccc2)NC(=O)OCc2cncs2)cs1 [Example 3, (2S.3S.5S)-5-(N-(N-((N-Methyl-N-((2-isopropyl-4-thiazolyl)methyl)amino)carbonyl)alaninyl)amino)-2-(N-((5-thiazolyl)methoxycarbonyl)amino)-1,6-diphenyl-3-hydroxyhexane]			41 to 75
